Test results from ChEMBL document CHEMBL5608182, “Synthesis and evaluation of neuroactive steroids with novel pharmacophore at C-21 let identify a compound with advantageous PK profile and higher EC50 and Emax as PAM on GABAA receptor” (Eur J Med Chem, 2024).

How the values were obtained:
[1] = Toxicity in male Sprague-Dawley rat assessed as loss of righting reflex at 7.8 micromol/kg, ip measured within 4 hrs; format: organism-based; conditions: in vivo, dose 7.8 µmol/kg
[2] = Toxicity in male Sprague-Dawley rat assessed as risk of consciousness loss by measuring time for first loss of righting reflex at 12.2 micromol/kg, ip measured within 4 hrs; format: organism-based; conditions: in vivo, dose 12.2 µmol/kg
Rattus norvegicus = test: Antiseizure activity in PTZ-induced male Sprague-Dawley rat acute seizure model assessed as increase in latency to tonic seizures at 12.2 micromol/kg, po pretreated for 1 hr followed by PTZ addition and measured after 60 mins (reference value: 77 +/- 13.4 sec); format: functional; conditions: dose 12.2 µmol/kg, time 120 min, 2 h
[3] = Ratio of Cmax in IG dosed Sprague-Dawley rat brain to plasma; format: ADME, organism-based; conditions: brain and plasma, po, read-out: BPR
[4] = Genotoxicity in Salmonella typhimurium TA102 assessed as induction of reverse mutation in presence of rat liver S9 fraction; format: toxicity, subcellular; conditions: salmonella enterica subsp. enterica serovar typhimurium
[5] = Toxicity in male Sprague-Dawley rat assessed as risk of consciousness loss by measuring time for first loss of righting reflex at 29.2 micromol/kg, ip measured within 4 hrs; format: organism-based; conditions: in vivo, dose 29.2 µmol/kg
[6] = Genotoxicity in Salmonella typhimurium TA1535 assessed as induction of reverse mutation in presence of rat liver S9 fraction; format: toxicity, subcellular; conditions: salmonella enterica subsp. enterica serovar typhimurium
[7] = Genotoxicity in Salmonella typhimurium TA98 assessed as induction of reverse mutation in presence of rat liver S9 fraction; format: toxicity, subcellular; conditions: salmonella enterica subsp. enterica serovar typhimurium
[8] = Genotoxicity in Salmonella typhimurium TA97 assessed as induction of reverse mutation in presence of rat liver S9 fraction; format: toxicity, subcellular; conditions: salmonella enterica subsp. enterica serovar typhimurium
[9] = Genotoxicity in Salmonella typhimurium TA1535 assessed as induction of reverse mutation in absence of rat liver S9 fraction; format: toxicity; conditions: salmonella enterica subsp. enterica serovar typhimurium
[10] = Genotoxicity in Salmonella typhimurium TA102 assessed as induction of reverse mutation in absence of rat liver S9 fraction; format: toxicity; conditions: salmonella enterica subsp. enterica serovar typhimurium

Structure (SMILES)	Activity [1]	Time [2]	Time (Rattus norvegicus)	Kp [3]	Activity [4]	Time [5]	Activity [6]	Activity [7]	Activity [8]	Activity [9]	Activity [10]
C[C@@]1(O)CC[C@H]2[C@H](CC[C@@H]3[C@@H]2CC[C@]2(C)[C@@H](C(=O)Cn4cc(C#N)cn4)CC[C@@H]32)C1 [ZURANOLONE]	Non-Toxic	33 min	1639 s								
C[C@@]1(O)CC[C@H]2[C@H](CC[C@@H]3[C@@H]2CC[C@]2(C)[C@@H](C(=O)Cn4cnn(-c5cc(F)nc(F)c5)c4=O)CC[C@@H]32)C1				1.5	Non-Toxic	65 min	Non-Toxic	Non-Toxic	Non-Toxic	Non-Toxic	Non-Toxic
